In patent publication US20140051679A1, “KINASE INHIBITORS AND METHOD OF TREATING CANCER WITH SAME” (UNIVERISTY HEALTH NETWORKS, priority 2011, published 2014):

Experiments:
[1] = tested on: HCT116 colon cancer cells; assay: Cell growth inhibition, Sulforhodamine B assay, HCT116; assay type: cell-based; conditions: Homo sapiens, HCT-116, 120 h, 5 days culture, SRB assay, read-out: Cell Line GI50 Range HCT116
[2] = tested on: MDA-MB-231 breast cancer cells; assay: Cell growth inhibition, Sulforhodamine B assay, MDA-MB-231; assay type: cell-based; conditions: Homo sapiens, 120 h, 5 days culture, SRB assay, read-out: Cell Line GI50 Range MDA-MB-231
human TTK = biological target: T1, human TTK (Homo sapiens, UniProt P33981); assay: TTK inhibition assay (indirect ELISA); assay type: biochemical; conditions: GST-TTK 0.68 nM, 16 μM ATP; read-out: IC50 Ranges TTK
T1 construct: amino terminal GST fusion of full length human TTK; purchased Invitrogen
T1 sequence (P33981 1-857): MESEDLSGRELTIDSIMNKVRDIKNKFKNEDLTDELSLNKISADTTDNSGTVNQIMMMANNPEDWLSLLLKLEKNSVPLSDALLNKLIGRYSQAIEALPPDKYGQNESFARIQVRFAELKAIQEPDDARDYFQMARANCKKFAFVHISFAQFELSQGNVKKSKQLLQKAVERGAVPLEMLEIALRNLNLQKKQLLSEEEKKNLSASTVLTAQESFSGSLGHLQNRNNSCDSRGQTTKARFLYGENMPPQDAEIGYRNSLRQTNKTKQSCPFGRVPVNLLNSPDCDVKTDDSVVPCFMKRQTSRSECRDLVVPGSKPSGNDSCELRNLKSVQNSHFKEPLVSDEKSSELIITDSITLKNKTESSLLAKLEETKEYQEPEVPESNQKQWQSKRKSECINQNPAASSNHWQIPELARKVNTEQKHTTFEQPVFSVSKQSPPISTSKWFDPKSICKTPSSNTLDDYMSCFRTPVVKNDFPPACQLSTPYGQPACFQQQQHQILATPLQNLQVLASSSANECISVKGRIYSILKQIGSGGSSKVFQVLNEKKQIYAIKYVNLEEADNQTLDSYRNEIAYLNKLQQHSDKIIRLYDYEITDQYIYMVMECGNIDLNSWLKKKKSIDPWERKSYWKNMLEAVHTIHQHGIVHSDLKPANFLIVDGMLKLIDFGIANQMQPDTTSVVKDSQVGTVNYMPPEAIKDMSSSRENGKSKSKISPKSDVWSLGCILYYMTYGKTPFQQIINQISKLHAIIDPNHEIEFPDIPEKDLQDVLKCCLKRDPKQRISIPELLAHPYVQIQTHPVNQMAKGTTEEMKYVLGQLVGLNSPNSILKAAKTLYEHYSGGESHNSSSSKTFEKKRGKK

human PLK4 = biological target: T2, human PLK4 (Homo sapiens, UniProt O00444); assay: PLK4 inhibition assay (indirect ELISA); assay type: biochemical; conditions: GST-PLK4 4 nM, 15 μM ATP; read-out: IC50 Ranges PLK4
T2 construct: amino terminal GST fusion of residues 1-391 of human PLK4; made in house; host or cells: E. coli
T2 sequence (O00444 1-391): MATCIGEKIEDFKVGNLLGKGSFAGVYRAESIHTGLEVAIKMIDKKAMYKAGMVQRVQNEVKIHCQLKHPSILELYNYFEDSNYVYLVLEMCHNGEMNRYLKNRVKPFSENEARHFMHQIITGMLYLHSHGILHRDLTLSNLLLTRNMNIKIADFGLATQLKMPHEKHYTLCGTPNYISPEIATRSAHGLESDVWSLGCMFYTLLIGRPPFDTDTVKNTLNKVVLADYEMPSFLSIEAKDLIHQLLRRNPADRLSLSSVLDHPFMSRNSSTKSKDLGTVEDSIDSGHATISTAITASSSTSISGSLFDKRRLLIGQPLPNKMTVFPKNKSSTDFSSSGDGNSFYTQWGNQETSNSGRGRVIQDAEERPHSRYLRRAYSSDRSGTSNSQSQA
Protocol: Active PLK4 was purified from an E. coli expression system as an amino terminal GST fusion of residues 1-391 of human PLK4. The protein was purified from clarified cell extracts after induction at 15° C. overnight using glutathione sepharose, gel permeation chromatography, and ion exchange (Resource Q). The resulting protein was dephosphorylated with lambda phosphatase (NEB cat#P0753), and resolved from the phosphatase using gluthione sepharose. The dephosphorylated GST-PLK4 was stored in aliquots at −80° C. until use.
PLK4 activity was measured using an indirect ELISA detection system. GST-PLK4 (4 nM) was incubated in the presence of 15 μM ATP (Sigma cat#A7699), 50 mM HEPES-Na^2+ pH 7.5, 10 mM MgCl2, 0.01% Brij 35 (Sigma cat#03-3170), in a 96 well microtitre plate pre-coated with MBP (Millipore cat#30-011). The reaction was allowed to proceed for 30 minutes, followed by 5 washes of the plate with Wash Buffer (phosphate buffered saline supplemented with 0.2% Tween 20), and incubation for 30 minutes with a 1:3000 dilution of primary antibody (Cell Signaling cat#9381). The plate was washed 5 times with Wash Buffer, incubated for 30 minutes in the presence of secondary antibody coupled to horse radish peroxidase (BioRad cat#1721019, 1:3000 concentration), washed an additional 5 times with Wash Buffer, and incubated in the presence of TMB substrate (Sigma cat#T0440). The colourimetric reaction was allowed to continue for 5 minutes, followed by addition of stop solution (0.5 N sulphuric acid), and quantified by detection at 450 nm with either a monochromatic or filter based plate reader (Molecular Devices M5 or Beckman DTX880, respectively).
Compound inhibition was determined at either a fixed concentration (10 μM) or at a variable inhibitor concentration (typically 0.5 μM to 0.001 μM in a 10 point dose response titration). Compounds were pre-incubated in the presence of enzyme for 15 minutes prior to addition of ATP and the activity remaining quantified using the above described activity assay. The % Inhibition of a compound was determined using the following formula; % Inhibition=100×(1-(experimental value−background value)/(high activity control−background value)). The IC50 value was determined using a non-linear 4 point logistic curve fit (XLfit4, IDBS) with the formula; (A+(B/(1+((x/C)̂D)))), where A=background value, B=range, C=inflection point, D=curve fit parameter.

[3] = tested on: MDA-MB-468 breast cancer cells; assay: Cell growth inhibition, Sulforhodamine B assay, MDA-MB-468; assay type: cell-based; conditions: Homo sapiens, 120 h, 5 days culture, SRB assay, read-out: Cell Line GI50 Range MDA-MB-468
Protocol: Breast cancer cells (MDA-MB-231, MDA-MB-468), colon cancer cells (HCT116, HT29) and ovarian cancer cells (PA-1, OVCAR-3) were seeded (1000 to 4000 in 80 μl per well depending on the cell growth rate) into 96 well plates 24 hours before compound overlay. Compounds were prepared as 10 mM stock solutions in 100% DMSO which were diluted with DMEM (Dulbecco's Modified Eagle's Medium) cell growth Medium (Invitrogen, Burlington, ON, Canada) containing 10% FBS (Fetal Bovine Serum) to concentrations ranging from 50 nM to 250 μM. Aliquots (20 μl) from each concentration were overlaid to 80 μl of the pre-seeded cells in the 96 well plates to make final concentrations of 10 nM to 50 μM. The cells were cultured for 5 days before the Sulforhodamine B assay (SRB) was performed to determine the compound's cell growth inhibition activity.
Sulforhodamine B (purchased from Sigma, Oakville, ON, Canada) is a water-soluble dye that binds to the basic amino acids of the cellular proteins. Thus, colorimetric measurement of the bound dye provides an estimate of the total protein mass that is related to the cell number. the cells are fixed in situ by gently aspirating off the culture media and adding 50 μl ice cold 10% Trichloroacetic Acid (TCA) per well and incubate at 4° C. for 30-60 min, The plates are washed with water five times and allowed to air dry for 5 min. Addition of 50 μl 0.4% (w/v) SRB solution in 1% (v/v) acetic acid to each well and incubatation for 30 min at RT completes the staining reaction. Following staining, plates are washed four times with 1% acetic acid to remove unbound dye and then allowed to air dry for 5 min. The stain is solubilized with 100 μl of 10 mM Tris pH 10.5 per well. Absorbance is read at 570 nm.
The percentage (%) of relative growth inhibition was calculated by comparing to DMSO treated only cells (100%). […] The GI50 was calculated using GraphPad PRISM software (GraphPad Software, Inc., San Diego, Calif., USA).

Aurora B = biological target: T3, Aurora B (Homo sapiens, UniProt Q96GD4); assay: Aurora B inhibition assay (Z-Lyte); assay type: biochemical; conditions: 28 nM Aurora B, 128 μM ATP; read-out: IC50 Ranges Aurora B
T3 construct: purchased Invitrogen PV3970
Protocol: Aurora B inhibition was determined using the Z-Lyte assay kit from Invitrogen. The assay was performed using the recommended manufacturer's instructions with 128 μM ATP and 28 nM Aurora B (Invitrogen cat #PV3970). The % inhibition values were determined according to the manufacturer's directions and IC50 values were obtained using a non-linear 4 point logistic curve fit (XLfit4, IDBS)

T3 sequence (Q96GD4 whole entry): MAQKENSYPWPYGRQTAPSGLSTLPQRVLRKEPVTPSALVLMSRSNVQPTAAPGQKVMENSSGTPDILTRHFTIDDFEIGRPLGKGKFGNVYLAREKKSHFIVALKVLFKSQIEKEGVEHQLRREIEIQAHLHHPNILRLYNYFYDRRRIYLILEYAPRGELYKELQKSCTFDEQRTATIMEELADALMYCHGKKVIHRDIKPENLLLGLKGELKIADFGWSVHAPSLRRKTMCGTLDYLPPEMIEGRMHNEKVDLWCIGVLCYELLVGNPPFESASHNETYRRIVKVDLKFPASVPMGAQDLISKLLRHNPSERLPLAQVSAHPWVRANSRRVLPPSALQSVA

Compound	GI50 [1]	GI50 [2]	IC50 (human TTK)	IC50 (human PLK4)	GI50 [3]	IC50 (Aurora B)
O=C(Nc1ccc2[nH]nc(-c3ccc(CCN4CCOCC4)cc3)c2c1)C(c1ccsc1)N1CCCC1 (stereo not drawn) [Example A6, N-(3-(4-(2-morpholinoethyl)phenyl)-1H-indazol-5-yl)-2-(pyrrolidin-1-yl)-2-(thiophen-3-yl)acetamide]	≤ 5 µM	≤ 5 µM	≤ 5 µM	≤ 5 µM	≤ 5 µM	≤ 5 µM
CN1CCN(c2ccc(-c3n[nH]c4ccc(NC(=O)C(c5ccsc5)N5CCCC5)cc34)cc2)CC1 (stereo not drawn) [Example A2, N-(3-(4-(4-methylpiperazin-1-yl)phenyl)-1H-indazol-5-yl)-2-(pyrrolidin-1-yl)-2-(thiophen-3-yl)acetamide]	≤ 5 µM	≤ 5 µM	≤ 5 µM	≤ 5 µM	≤ 5 µM	≤ 5 µM
COc1cc(-c2n[nH]c3ccc(NC(=O)C(c4ccsc4)N4CCCC4)cc23)ccc1N1CCN(C)CC1 (stereo not drawn) [Example A10, N-(3-(3-methoxy-4-(4-methylpiperazin-1-yl)phenyl)-1H-indazol-5-yl)-2-(pyrrolidin-1-yl)-2-(thiophen-3-yl)acetamide]	≤ 5 µM	≤ 5 µM	≤ 5 µM	≤ 5 µM	≤ 5 µM	≤ 5 µM
CN1CCN(c2ccc(-c3n[nH]c4ccc(NC(=O)C5CCCc6ccccc65)cc34)cc2)CC1 (stereo not drawn) [Example A11, N-(3-(4-(4-methylpiperazin-1-yl)phenyl)-1H-indazol-5-yl)-1,2,3,4-tetrahydronaphthalene-1-carboxamide]	≤ 5 µM	≤ 5 µM	≤ 5 µM	≤ 5 µM	≤ 5 µM	≤ 5 µM
O=C(Nc1ccc2[nH]nc(-c3ccc4c(c3)OCCCO4)c2c1)C(c1ccsc1)N1CCCC1 (stereo not drawn) [Example A20, N-(3-(3,4-dihydro-2H-benzo[b][1,4]dioxepin-7-yl)-1H-indazol-5-yl)-2-(pyrrolidin-1-yl)-2-(thiophen-3-yl)acetamide]	≤ 5 µM	≤ 5 µM	≤ 5 µM	≤ 5 µM	≤ 5 µM	≤ 5 µM
COc1cc(-c2n[nH]c3ccc(C(=O)NC(c4ccccc4)C4CC4)cc23)ccc1OC1CCN(C)CC1 (stereo not drawn) [Example A19, N-(cyclopropyl(phenyl)methyl)-3-(3-methoxy-4-((1-methylpiperidin-4-yl)oxy)phenyl)-1H-indazole-5-carboxamide]	≤ 5 µM	≤ 5 µM	≤ 5 µM	≤ 5 µM	≤ 5 µM	≤ 5 µM
O=C(Nc1ccc2[nH]nc(-c3cccc(CN4CCOCC4)c3)c2c1)C(c1ccsc1)N1CCCC1 (stereo not drawn) [Example A1, N-(3-(3-(morpholinomethyl)phenyl)-1H-indazol-5-yl)-2-(pyrrolidin-1-yl)-2-(thiophen-3-yl)acetamide]	≤ 5 µM	≤ 5 µM	≤ 5 µM	≤ 5 µM	≤ 5 µM	5 to 50 µM
CN1CCc2cc(-c3n[nH]c4ccc(NC(=O)C(c5ccsc5)N5CCCC5)cc34)ccc21 (stereo not drawn) [Example A16, N-(3-(1-methylindolin-5-yl)-1H-indazol-5-yl)-2-(pyrrolidin-1-yl)-2-(thiophen-3-yl)acetamide]	≤ 5 µM	≤ 5 µM	≤ 5 µM	≤ 5 µM	≤ 5 µM	≤ 5 µM
COc1cc(-c2n[nH]c3ccc(C(=O)NC(c4ccccc4)C4CC4)cc23)ccc1OC1CCNCC1 (stereo not drawn) [Example A13, N-(cyclopropyl(phenyl)methyl)-3-(3-methoxy-4-(piperidin-4-yloxy)phenyl)-1H-indazole-5-carboxamide]	≤ 5 µM	≤ 5 µM	≤ 5 µM	≤ 5 µM	≤ 5 µM	≤ 5 µM
O=C(Nc1ccc2[nH]nc(-c3ccc(CN4CCOCC4)cc3)c2c1)C(c1ccsc1)N1CCCC1 (stereo not drawn) [Example A3, N-(3-(4-(morpholinomethyl)phenyl)-1H-indazol-5-yl)-2-(pyrrolidin-1-yl)-2-(thiophen-3-yl)acetamide]	≤ 5 µM	≤ 5 µM	≤ 5 µM	≤ 5 µM	≤ 5 µM	≤ 5 µM
O=C(Nc1ccc2[nH]nc(-c3ccc4c(c3)OCCO4)c2c1)C(c1ccsc1)N1CCCC1 (stereo not drawn) [Example A15, N-(3-(2,3-dihydrobenzo[b][1,4]dioxin-6-yl)-1H-indazol-5-yl)-2-(pyrrolidin-1-yl)-2-(thiophen-3-yl)acetamide]	≤ 5 µM	≤ 5 µM	≤ 5 µM	≤ 5 µM	≤ 5 µM	–
O=C(Nc1ccc2[nH]nc(-c3ccc(CN4CCOCC4)cc3)c2c1)C1CCCc2ccccc21 (stereo not drawn) [Example A23, N-(3-(4-(morpholinomethyl)phenyl)-1H-indazol-5-yl)-1,2,3,4-tetrahydronaphthalene-1-carboxamide]	≤ 5 µM	5 to 20 µM	≤ 5 µM	≤ 5 µM	≤ 5 µM	–
O=C(Nc1ccc2[nH]nc(-c3ccc4c(c3)OCO4)c2c1)C(c1ccsc1)N1CCCC1 (stereo not drawn) [Example A14, N-(3-(benzo[d][1,3]dioxol-5-yl)-1H-indazol-5-yl)-2-(pyrrolidin-1-yl)-2-(thiophen-3-yl)acetamide]	≤ 5 µM	≤ 5 µM	≤ 5 µM	≤ 5 µM	≤ 5 µM	–
